{
  "source": "paper PMC8026785",
  "about": "“The pharmacokinetics of [^18F]UCB-H revisited in the healthy non-human primate brain” (EJNMMI Research, 2021)",
  "target": "T1, SV2A (Macaca fascicularis, UniProt Q4R4X3)",
  "T1 construct": "The current study evaluates [^18F]UCB-H pharmacokinetics in healthy NHPs; from tissue; host or cells: brain of living healthy cynomolgus monkeys (in vivo PET)",
  "T1 sequence (Q4R4X3 whole entry)": "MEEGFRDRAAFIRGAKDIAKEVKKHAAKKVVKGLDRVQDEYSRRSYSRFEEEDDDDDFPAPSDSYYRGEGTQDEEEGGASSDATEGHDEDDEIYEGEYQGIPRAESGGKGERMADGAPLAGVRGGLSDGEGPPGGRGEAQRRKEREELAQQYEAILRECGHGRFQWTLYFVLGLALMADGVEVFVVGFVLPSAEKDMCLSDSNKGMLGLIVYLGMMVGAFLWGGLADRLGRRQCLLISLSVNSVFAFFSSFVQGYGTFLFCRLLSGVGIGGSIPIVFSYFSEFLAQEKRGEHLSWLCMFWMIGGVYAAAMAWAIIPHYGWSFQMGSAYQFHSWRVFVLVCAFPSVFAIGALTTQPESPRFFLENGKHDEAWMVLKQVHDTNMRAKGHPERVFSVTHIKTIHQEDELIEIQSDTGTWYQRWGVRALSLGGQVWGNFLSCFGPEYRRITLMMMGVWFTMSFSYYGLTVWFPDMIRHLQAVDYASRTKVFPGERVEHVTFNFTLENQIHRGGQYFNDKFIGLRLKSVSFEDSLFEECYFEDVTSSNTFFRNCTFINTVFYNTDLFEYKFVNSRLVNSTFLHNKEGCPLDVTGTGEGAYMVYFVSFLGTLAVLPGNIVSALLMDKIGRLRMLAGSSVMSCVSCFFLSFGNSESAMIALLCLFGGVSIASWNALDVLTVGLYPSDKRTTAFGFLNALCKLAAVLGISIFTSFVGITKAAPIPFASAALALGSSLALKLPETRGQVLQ",
  "assay": "Brain PET kinetic modelling (1TCM, 2TCM, 2TCM-c, Logan), test-retest",
  "format": "in vivo, cynomolgus monkeys (Macaca fascicularis)",
  "experimental": "All four non-human primates (NHP) underwent a 2-h (2 h) test and retest PET scan; two NHP underwent an additional 4-h (4 h) retest PET scan. Three NHP underwent one 4-h (4 h) displacement PET scan. Arterial blood sampling was performed during test and retest scans with PET imaging spaced by at least 3 weeks between each scan. To this end, the femoral artery opposite to the saphenous vein used for radioligand injection was cannulated. For the 2-h (2 h) scans, we collected in total 28 blood samples of 1 mL: 16 samples during the first 5 min followed by […] every 5 min and […] every 10 min. For the 4 h scans, we collected an additional 6 samples every 20 min during the last two hours (34 samples in total). Larger samples (2 – 3 mL) were collected at 5, 15, 30, 60, 90, 120 min (2 h) and at 180, 240 min (4 h) for metabolite analysis. Displacement of [^18F]UCB-H was done by intravenous (IV) administration 90 min after [^18F]UCB-H injection of a bolus of 30 mg/kg LEV, or of 80 µg/kg (≈250 nmol/kg) or 5 mg/kg (≈15 µmol/kg) of cold [^19F]-UCB-H. Full experimental design of all NHP is outlined in Additional file 1: Table 1.\nPET imaging was performed on the microPET FOCUS220 (Siemens) under standard anesthesia and monitoring procedures. Data acquisition started with the IV bolus injection of [^18F]UCB-H (32.9 ± 1.0 MBq/kg, 0.35 ± 0.07 µg/kg). Dynamic PET images were reconstructed using standard OSEM-2D algorithms while correcting for radioactive decay, scatter, attenuation and detectors inhomogeneity, which were measured prior to PET scanning using respectively ^57Co and ^68Ge external sources.\nPET image analysis was performed using PMOD software version 3.8 (PMOD Technologies Ltd., Zurich, Suisse). After individual co-registration of PET-MR images, a cynomolgus atlas published by Ballanger and coworkers was normalized to PET images to extract time activity curves in different brain regions. Volumes of interest (VOI) were cerebral white matter (16.7 cm^3), striatum (0.24 cm^3), thalamus (0.89 cm^3), cerebellum (3.83 cm^3), frontal—(2.50 cm^3), parietal—(5.35 cm^3), and temporal (8.22 cm^3) cortex, and whole brain (72.2 cm^3) as a composite region of all regions in the atlas. [^18F]UCB-H pharmacokinetics were evaluated by analyzing the time activity curves of the test- and retest scans using 1- and 2-tissue compartment models (unconstrained and constrained with global K1/k2 coupled fit across all regions, further referred to as 2TCM and 2TCM-c), and Logan graphical analysis with a fixed t* at 60 min [33] using the arterial plasma input function corrected for radio-metabolites to derive the volume of distribution in each region. Percentage standard error (%SE) was estimated from the theoretical parameter covariance matrix. Only reliable estimates (%SE less than 25%) were included in the current analyses. For the three drug studies, percent displacement of the total activity in the whole brain was estimated relative to an average baseline constructed from the two 4 h baseline studies. Briefly, Standardized Uptake Value (SUV) time activity curves (TACs) were calculated for the two baseline and the three displacement studies. Then, each curve was normalized to the SUV at t = 90 min, corresponding to the timeframe immediately before the administration of the drugs in the displacement studies. Baseline curves were averaged and the percent displacement of total activity was calculated as (baseline-displacement)/baseline at a given time post drug administration (see “Results”).\nStatistical analysis was performed using R software (version 3.3.1.). Plasma, intact parent fraction and time activity curves were statistically compared between subjects using a one-factor variance analysis. Absolute Test–Retest variability (aTRV) of PET quantification parameters was calculated as ABS(test—retest) / AVERAGE(test, retest). […]",
  "key": {"[1]": {"settings": "White Matter, Retest, individual NHP"}, "[2]": {"settings": "White Matter, Test, individual NHP"}},
  "note": "Values joined by “and” are separate entries in the source; they are usually repeats but may differ in a detail not shown here. Identical values can stand only once.",
  "data": [
    {"smiles": "O=C1C[C@H](c2cc(F)c(F)c(F)c2)CN1Cc1ccncc1[18F]", "note": "[[^18F]UCB-H]", "values": [
      {"measurement": "k3/k4 (2TCM-c)", "setting": "Thalamus, Retest, individual NHP", "result": "0.64 and 2.00 and 0.90 and 0.33"},
      {"measurement": "VT (1TCM)", "setting": "Thalamus, Retest, mean", "result": 13.4, "unit": "mL/cm^3"},
      {"measurement": "VT (2TCM)", "setting": "Thalamus, Retest, mean", "result": 13.0, "unit": "mL/cm^3"},
      {"measurement": "VT (2TCM-c)", "setting": "Thalamus, Retest, mean", "result": 14.2, "unit": "mL/cm^3"},
      {"measurement": "VT (Logan (t* = 60))", "setting": "Thalamus, Retest, mean", "result": 14.3, "unit": "mL/cm^3"},
      {"measurement": "k3/k4 (BPND) (2TCM-c)", "setting": "Thalamus, Retest, mean", "result": 0.97},
      {"measurement": "K1 (2TCM)", "setting": "Thalamus, Test, individual NHP", "result": "0.21 ml/cm^3 /min and 0.24 ml/cm^3 /min and 0.45 ml/cm^3 /min and 0.53 ml/cm^3 /min"},
      {"measurement": "K1 (2TCM-c)", "setting": "Thalamus, Test, individual NHP", "result": "0.20 ml/cm^3 /min and 0.25 ml/cm^3 /min and 0.48 ml/cm^3 /min and 0.54 ml/cm^3 /min"},
      {"measurement": "K1/k2 (2TCM)", "setting": "Thalamus, Test, individual NHP", "result": "11.03 ml/cm^3 and 7.51 ml/cm^3 and 12.45 ml/cm^3 and 12.69 ml/cm^3"},
      {"measurement": "K1/k2 (2TCM-c)", "setting": "Thalamus, Test, individual NHP", "result": "7.86 ml/cm^3 and 4.35 ml/cm^3 and 8.22 ml/cm^3 and 10.99 ml/cm^3"},
      {"measurement": "VT (1TCM)", "setting": "Thalamus, Test, individual NHP", "result": "12.88 ml/cm^3 and 10.42 ml/cm^3 and 16.04 ml/cm^3 and 14.02 ml/cm^3"},
      {"measurement": "VT (2TCM)", "setting": "Thalamus, Test, individual NHP", "result": "13.65 ml/cm^3 and 17.60 ml/cm^3"},
      {"measurement": "VT (2TCM-c)", "setting": "Thalamus, Test, individual NHP", "result": "17.47 ml/cm^3 and 11.10 ml/cm^3 and 16.27 ml/cm^3 and 15.12 ml/cm^3"},
      {"measurement": "VT (Logan)", "setting": "Thalamus, Test, individual NHP", "result": "14.58 ml/cm3 and 12.30 ml/cm3 and 17.00 ml/cm3 and 15.59 ml/cm3"},
      {"measurement": "k3/k4 (2TCM)", "setting": "Thalamus, Test, individual NHP", "result": 0.82},
      {"measurement": "k3/k4 (2TCM-c)", "setting": "Thalamus, Test, individual NHP", "result": "1.00 and 1.56 and 1.18 and 0.38"},
      {"measurement": "VT (1TCM)", "setting": "Thalamus, Test, mean", "result": 13.3, "unit": "mL/cm^3"},
      {"measurement": "VT (2TCM)", "setting": "Thalamus, Test, mean", "result": 15.6, "unit": "mL/cm^3"},
      {"measurement": "VT (2TCM-c)", "setting": "Thalamus, Test, mean", "result": 15.0, "unit": "mL/cm^3"},
      {"measurement": "VT (Logan (t* = 60))", "setting": "Thalamus, Test, mean", "result": 14.9, "unit": "mL/cm^3"},
      {"measurement": "k3/k4 (BPND) (2TCM-c)", "setting": "Thalamus, Test, mean", "result": 1.03},
      {"measurement": "K1 (2TCM)", "setting": "[1]", "result": "0.29 ml/cm^3 /min and 0.49 ml/cm^3 /min and 0.32 ml/cm^3 /min and 0.35 ml/cm^3 /min"},
      {"measurement": "K1 (2TCM-c)", "setting": "[1]", "result": "0.30 ml/cm^3 /min and 0.44 ml/cm^3 /min and 0.32 ml/cm^3 /min and 0.35 ml/cm^3 /min"},
      {"measurement": "K1/k2 (2TCM)", "setting": "[1]", "result": "1.66 ml/cm^3 and 10.04 ml/cm^3 and 11.74 ml/cm^3"},
      {"measurement": "K1/k2 (2TCM-c)", "setting": "[1]", "result": "7.25 ml/cm^3 and 4.64 ml/cm^3 and 9.07 ml/cm^3 and 10.70 ml/cm^3"},
      {"measurement": "VT (1TCM)", "setting": "[1]", "result": "10.59 ml/cm^3 and 12.63 ml/cm^3 and 13.80 ml/cm^3 and 12.91 ml/cm^3"},
      {"measurement": "VT (2TCM)", "setting": "[1]", "result": "10.58 ml/cm^3 and 12.82 ml/cm^3 and 14.29 ml/cm^3"},
      {"measurement": "VT (2TCM-c)", "setting": "[1]", "result": "10.59 ml/cm^3 and 12.79 ml/cm^3 and 18.23 ml/cm^3 and 13.35 ml/cm^3"},
      {"measurement": "VT (Logan)", "setting": "[1]", "result": "11.11 ml/cm3 and 12.93 ml/cm3 and 16.97 ml/cm3 and 13.41 ml/cm3"},
      {"measurement": "k3/k4 (2TCM)", "setting": "[1]", "result": 6.72},
      {"measurement": "k3/k4 (2TCM-c)", "setting": "[1]", "result": "0.46 and 1.76 and 0.27"},
      {"measurement": "K1 (2TCM)", "setting": "[2]", "result": "0.17 ml/cm^3 /min and 0.19 ml/cm^3 /min and 0.41 ml/cm^3 /min"},
      {"measurement": "K1 (2TCM-c)", "setting": "[2]", "result": "0.17 ml/cm^3 /min and 0.20 ml/cm^3 /min and 0.42 ml/cm^3 /min"},
      {"measurement": "K1/k2 (2TCM)", "setting": "[2]", "result": "9.57 ml/cm^3 and 6.00 ml/cm^3 and 9.76 ml/cm^3 and 11.24 ml/cm^3"},
      {"measurement": "K1/k2 (2TCM-c)", "setting": "[2]", "result": "7.86 ml/cm^3 and 4.35 ml/cm^3 and 8.22 ml/cm^3 and 10.99 ml/cm^3"},
      {"measurement": "VT (1TCM)", "setting": "[2]", "result": "12.00 ml/cm^3 and 9.44 ml/cm^3 and 14.88 ml/cm^3 and 12.88 ml/cm^3"},
      {"measurement": "VT (2TCM)", "setting": "[2]", "result": "11.61 ml/cm^3 and 16.36 ml/cm^3"},
      {"measurement": "VT (2TCM-c)", "setting": "[2]", "result": "15.44 ml/cm^3 and 10.47 ml/cm^3 and 15.61 ml/cm^3"},
      {"measurement": "VT (Logan)", "setting": "[2]", "result": "14.19 ml/cm3 and 11.20 ml/cm3 and 15.99 ml/cm3 and 14.37 ml/cm3"},
      {"measurement": "k3/k4 (2TCM)", "setting": "[2]", "result": 0.94},
      {"measurement": "k3/k4 (2TCM-c)", "setting": "[2]", "result": "1.41 and 1.09"},
      {"measurement": "ICC of 2TCM-c VT", "setting": "White matter", "result": 0.43},
      {"measurement": "ICC of Logan (t* = 60) VT", "setting": "White matter", "result": 0.62},
      {"measurement": "aTRV of 2TCM-c VT", "setting": "White matter", "result": 24, "unit": "%"},
      {"measurement": "aTRV of Logan (t* = 60) VT", "setting": "White matter", "result": 13, "unit": "%"},
      {"measurement": "VT (1TCM)", "setting": "White matter, Retest, mean", "result": 12.5, "unit": "mL/cm^3"},
      {"measurement": "VT (2TCM)", "setting": "White matter, Retest, mean", "result": 12.6, "unit": "mL/cm^3"},
      {"measurement": "VT (2TCM-c)", "setting": "White matter, Retest, mean", "result": 13.7, "unit": "mL/cm^3"},
      {"measurement": "VT (Logan (t* = 60))", "setting": "White matter, Retest, mean", "result": 13.6, "unit": "mL/cm^3"},
      {"measurement": "k3/k4 (BPND) (2TCM-c)", "setting": "White matter, Retest, mean", "result": 0.83},
      {"measurement": "VT (1TCM)", "setting": "White matter, Test, mean", "result": 12.3, "unit": "mL/cm^3"},
      {"measurement": "VT (2TCM)", "setting": "White matter, Test, mean", "result": 14.0, "unit": "mL/cm^3"},
      {"measurement": "VT (2TCM-c)", "setting": "White matter, Test, mean", "result": 13.8, "unit": "mL/cm^3"},
      {"measurement": "VT (Logan (t* = 60))", "setting": "White matter, Test, mean", "result": 13.9, "unit": "mL/cm^3"},
      {"measurement": "k3/k4 (BPND) (2TCM-c)", "setting": "White matter, Test, mean", "result": 1.25},
      {"measurement": "BPND lower compared to [^11C]UCB-J and other [^18F]-labelled SV2A radioligands", "setting": "cynomolgus NHP", "result": "3 to fourfold lower"},
      {"measurement": "VT lower compared to [^11C]UCB-J and other [^18F]-labelled SV2A radioligands", "setting": "cynomolgus NHP", "result": "~ 50%"},
      {"measurement": "free fraction in tissue fND", "setting": "cynomolgus monkey, in vivo", "result": "6.1 ± 1.3% and ~ 6%"},
      {"measurement": "tissue influx parameter K1", "setting": "grey matter regions, 2TCM and 2TCM-c", "result": "0.37 ± 0.01", "unit": "mL/cm^3/min"},
      {"measurement": "average VND (K1/k2 from 2TCM-c)", "setting": "over all VOIs and animals", "result": "7.89 ± 1.23", "unit": "mL/cm^3"}
    ]}
  ]
}
